We go through 25 compounds from US10988477B2 (Merck Patent GmbH, priority 2018, dated 2021).

One test deals with GCN2 kinase (Homo sapiens, UniProt Q9P2K8). The test can be described thus: GCN2 enzyme inhibition assay (Transcreener ADP2 fluorescence polarization). The format is biochemical. Particulars: Enzyme activity for compounds of Formula IV; Ki(app), 280 μM ATP, 25° C. In outline: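 ADP formation read by Transcreener FP after a 1 h, 25 °C kinase reaction containing 280 μM ATP, 200 μM (RS)7 substrate and 4 nM GCN2, pH 7.5 Tris buffer. Compounds (0–8 μM final) were added 10 min before ATP. Percent inhibition gave IC50 and apparent Ki via tight-binding fit.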

The target in test [1] is intracellular GCN2 (phosphorylation of the GCN2 substrate eIF2α) (Homo sapiens, UniProt Q9P2K8). Description: GCN2 cellular inhibition assay (AlphaScreen SureFire P-eIF2α Ser51, borrelidin-treated U2OS cells). The test is classed as cell-based. The conditions noted are these: compounds of Formula IV; biomarker assay, phosphorylated eIF2α Ser51 in borrelidin-treated U2OS cells. In outline: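 Borrelidin at 10 μM is added to U2OS cells immediately after compound (4-fold dilution series, 40 μM top final) for 1 h at 37 °C. Phosphorylated eIF2α Ser51 in lysates is quantified by AlphaScreen and expressed as percent inhibition against borrelidin-stimulated controls.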
A general note: Alpha assays give light when donor and acceptor beads are brought close together.

pIC50, pKi: −log10 of the molar value.

GCN2 kinase, sequence (Q9P2K8 whole entry): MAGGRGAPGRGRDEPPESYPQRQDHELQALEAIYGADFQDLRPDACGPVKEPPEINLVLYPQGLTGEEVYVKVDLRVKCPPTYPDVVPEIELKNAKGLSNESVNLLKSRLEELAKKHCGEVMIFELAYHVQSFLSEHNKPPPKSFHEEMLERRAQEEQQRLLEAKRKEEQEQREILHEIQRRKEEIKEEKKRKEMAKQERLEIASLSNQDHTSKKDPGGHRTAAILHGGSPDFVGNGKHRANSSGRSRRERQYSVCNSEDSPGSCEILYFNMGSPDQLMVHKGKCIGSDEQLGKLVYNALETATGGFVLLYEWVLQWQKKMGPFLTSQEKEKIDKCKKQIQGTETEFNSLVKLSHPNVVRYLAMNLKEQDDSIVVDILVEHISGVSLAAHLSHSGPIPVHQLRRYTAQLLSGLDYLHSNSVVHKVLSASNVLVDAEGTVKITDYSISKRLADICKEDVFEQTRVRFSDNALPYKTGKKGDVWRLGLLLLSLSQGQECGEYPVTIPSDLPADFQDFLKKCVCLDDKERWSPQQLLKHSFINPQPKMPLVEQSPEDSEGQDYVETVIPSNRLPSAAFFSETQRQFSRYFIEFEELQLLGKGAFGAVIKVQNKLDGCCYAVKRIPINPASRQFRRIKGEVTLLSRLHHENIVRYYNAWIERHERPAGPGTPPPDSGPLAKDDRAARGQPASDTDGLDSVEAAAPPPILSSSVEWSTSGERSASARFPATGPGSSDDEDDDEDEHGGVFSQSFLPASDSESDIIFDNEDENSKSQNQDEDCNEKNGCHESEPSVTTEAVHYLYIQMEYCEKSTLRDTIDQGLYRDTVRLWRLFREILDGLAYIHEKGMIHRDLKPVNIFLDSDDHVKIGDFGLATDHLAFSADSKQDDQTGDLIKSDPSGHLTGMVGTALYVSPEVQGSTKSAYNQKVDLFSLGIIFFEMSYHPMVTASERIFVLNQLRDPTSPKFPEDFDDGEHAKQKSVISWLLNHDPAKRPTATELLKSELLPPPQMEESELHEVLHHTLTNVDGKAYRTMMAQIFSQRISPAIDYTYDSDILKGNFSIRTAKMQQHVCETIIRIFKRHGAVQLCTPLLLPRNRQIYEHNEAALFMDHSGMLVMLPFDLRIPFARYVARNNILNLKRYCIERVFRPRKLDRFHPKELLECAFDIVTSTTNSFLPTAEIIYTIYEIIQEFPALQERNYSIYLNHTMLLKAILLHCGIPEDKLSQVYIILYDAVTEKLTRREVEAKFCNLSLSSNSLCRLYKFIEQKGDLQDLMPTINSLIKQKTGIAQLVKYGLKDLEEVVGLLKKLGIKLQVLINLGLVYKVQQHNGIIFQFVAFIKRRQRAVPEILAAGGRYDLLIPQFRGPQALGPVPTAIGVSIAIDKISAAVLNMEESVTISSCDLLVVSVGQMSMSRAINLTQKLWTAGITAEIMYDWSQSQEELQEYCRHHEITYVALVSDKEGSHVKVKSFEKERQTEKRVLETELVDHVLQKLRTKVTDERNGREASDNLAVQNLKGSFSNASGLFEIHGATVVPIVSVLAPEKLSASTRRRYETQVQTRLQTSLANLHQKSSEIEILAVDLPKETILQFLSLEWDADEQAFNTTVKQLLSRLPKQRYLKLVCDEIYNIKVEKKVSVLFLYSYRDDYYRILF
intracellular GCN2 (phosphorylation of the GCN2 substrate eIF2α), sequence (Q9P2K8 whole entry): as above

By pKi is commonly meant the negative decadic logarithm of the Ki, by convention in mol/L. Low readings indicate a large Ki, high ones a small Ki. One may read the pIC50 as −log10 of the IC50, conventionally taken in molar units. Read a low pIC50 as a large IC50. The compound `CC1CN(c2ccnc(-c3cnc4cnc(C(F)(F)F)cn34)n2)C(C)C(c2cn[nH]c2)O1` (single isomer, unassigned) [IV-450, 3,6-Dimethyl-2-(1H-pyrazol-4-yl)-4-(2-(6-(trifluoromethyl)imidazo[1,2-a]pyrazin-3-yl)pyrimidin-4-yl)morpholine] had a pKi on GCN2 kinase of 6.00 to 7.00. The same compound had a pIC50 in test [1] of 5.30 to 6.30.

In the case of `CC1CN(c2ccnc(-c3cnc4cnc(C(F)(F)F)cn34)n2)C(C)C(c2cn[nH]c2)O1` (single isomer, unassigned) [IV-451, 3,6-Dimethyl-2-(1H-pyrazol-4-yl)-4-(2-(6-(trifluoromethyl)imidazo[1,2-a]pyrazin-3-yl)pyrimidin-4-yl)morpholine], the pKi on GCN2 kinase was greater than 8.00. For the same compound, the pIC50 in test [1] was greater than 6.30.

`Cc1[nH]ncc1C1CN(c2ccnc(-c3cnc4cnc(C(F)(F)F)cn34)n2)CC(C)N1` (single isomer, unassigned) [IV-458, 3-(4-(3-Methyl-5-(5-methyl-1H-pyrazol-4-yl)piperazin-1-yl)pyrimidin-2-yl)-6-(trifluoromethyl)imidazo[1,2-a]pyrazine]: the pKi at GCN2 kinase was 6.00 to 7.00. The same compound had a pIC50 in test [1] of less than 5.30.

For `Cc1[nH]ncc1C1CN(c2ccnc(-c3cnc4cnc(C(F)(F)F)cn34)n2)CC(C)N1` (single isomer, unassigned) [IV-459, 3-(4-(3-Methyl-5-(5-methyl-1H-pyrazol-4-yl)piperazin-1-yl)pyrimidin-2-yl)-6-(trifluoromethyl)imidazo[1,2-a]pyrazine], the pKi on GCN2 kinase is 7.00 to 8.00. Besides, the pIC50 in test [1] was 5.30 to 6.30.

On GCN2 kinase, `CC1CN(c2ccnc(-c3cnc4cnc(C(F)(F)F)cn34)n2)CC(c2cn[nH]c2)N1` (single isomer, unassigned) [IV-460, 3-(4-(3-Methyl-5-(1H-pyrazol-4-yl)piperazin-1-yl)pyrimidin-2-yl)-6-(trifluoromethyl)imidazo[1,2-a]pyrazine] had a pKi of 6.00 to 7.00. The pIC50 in test [1] was 5.30 to 6.30.

`CC1CN(c2ccnc(-c3cnc4cnc(C(F)(F)F)cn34)n2)CC(c2cn[nH]c2)N1` (single isomer, unassigned) [IV-461, 3-(4-(3-Methyl-5-(1H-pyrazol-4-yl)piperazin-1-yl)pyrimidin-2-yl)-6-(trifluoromethyl)imidazo[1,2-a]pyrazine] gave a pKi at GCN2 kinase of 7.00 to 8.00. The compound further had a pIC50 in test [1] of 5.30 to 6.30.

Turning to `Cc1[nH]ncc1C1CN(c2ccnc(-c3cnc4cnc(C(F)F)cn34)n2)CC(C)N1` (single isomer, unassigned) [IV-462, 6-(Difluoromethyl)-3-(4-(3-methyl-5-(5-methyl-1H-pyrazol-4-yl)piperazin-1-yl)pyrimidin-2-yl)imidazo[1,2-a]pyrazine], on GCN2 kinase, the pKi is 6.00 to 7.00. The pIC50 in test [1] is less than 5.30.

With `Cc1[nH]ncc1C1CN(c2ccnc(-c3cnc4cnc(C(F)F)cn34)n2)CC(C)N1` (single isomer, unassigned) [IV-463, 6-(Difluoromethyl)-3-(4-(3-methyl-5-(5-methyl-1H-pyrazol-4-yl)piperazin-1-yl)pyrimidin-2-yl)imidazo[1,2-a]pyrazine], the pKi on GCN2 kinase was 6.00 to 7.00. For the same compound, the pIC50 in test [1] is less than 5.30.

In the case of `Cc1n[nH]c(C)c1C1CN(c2ccnc(-c3cnc4cnc(C(F)(F)F)cn34)n2)CC(C)N1` (single isomer, unassigned) [IV-465, 3-(4-(3-(3,5-Dimethyl-1H-pyrazol-4-yl)-5-methylpiperazin-1-yl)pyrimidin-2-yl)-6-(trifluoromethyl)imidazo[1,2-a]pyrazine], on GCN2 kinase, the pKi is 7.00 to 8.00. In test [1], this compound gave a pIC50 of 5.30 to 6.30.

In the case of `Cc1n[nH]c(C)c1C1CN(c2ccnc(-c3cnc4cnc(C(F)(F)F)cn34)n2)CC(C)N1` (single isomer, unassigned) [IV-467, 3-(4-(3-(3,5-Dimethyl-1H-pyrazol-4-yl)-5-methylpiperazin-1-yl)pyrimidin-2-yl)-6-(trifluoromethyl)imidazo[1,2-a]pyrazine], the pKi at GCN2 kinase was 6.00 to 7.00. For the same compound, in test [1], the pIC50 was less than 5.30.

The compound `Cc1n[nH]cc1C1CCCN(c2ccnc(-c3cnc4cnc(C(F)F)cn34)n2)C1` (single isomer, unassigned) [IV-468, 6-(Difluoromethyl)-3-(4-(3-(3-methyl-1H-pyrazol-4-yl)piperidin-1-yl)pyrimidin-2-yl)imidazo[1,2-a]pyrazine] gave a pKi on GCN2 kinase of 7.00 to 8.00. Also, in test [1], the negative-log IC50 (pIC50) is 5.30 to 6.30.

At GCN2 kinase, `Cc1n[nH]cc1C1CCCN(c2ccnc(-c3cnc4cnc(C(F)F)cn34)n2)C1` (single isomer, unassigned) [IV-469, 6-(Difluoromethyl)-3-(4-(3-(3-methyl-1H-pyrazol-4-yl)piperidin-1-yl)pyrimidin-2-yl)imidazo[1,2-a]pyrazine] had a negative logarithm of the Ki (pKi) of 7.00 to 8.00. The pIC50 in test [1] is less than 5.30.

For `Cc1[nH]ncc1C1CCCN(c2ccnc(-c3cnc4cnc(C(F)(F)F)cn34)n2)C1` (single isomer, unassigned) [IV-470, 3-(4-(3-(5-Methyl-1H-pyrazol-4-yl)piperidin-1-yl)pyrimidin-2-yl)-6-(trifluoromethyl)imidazo[1,2-a]pyrazine], the pKi at GCN2 kinase was greater than 8.00. This compound also had a pIC50 in test [1] of less than 5.30.

On GCN2 kinase, `Cc1[nH]ncc1C1CCCN(c2ccnc(-c3cnc4cnc(C(F)(F)F)cn34)n2)C1` (single isomer, unassigned) [IV-471, 3-(4-(3-(5-Methyl-1H-pyrazol-4-yl)piperidin-1-yl)pyrimidin-2-yl)-6-(trifluoromethyl)imidazo[1,2-a]pyrazine] had a pKi of 7.00 to 8.00. The same compound showed a pIC50 in test [1] of less than 5.30.

For the compound `CC1CN(c2ccnc(-c3cnc4cnc(C(F)(F)F)cn34)n2)CC(c2cn[nH]c2C(F)(F)F)N1` (single isomer, unassigned) [IV-474, 3-(4-(3-Methyl-5-(5-(trifluoromethyl)-1H-pyrazol-4-yl)piperazin-1-yl)pyrimidin-2-yl)-6-(trifluoromethyl)imidazo[1,2-a]pyrazine], on GCN2 kinase, the pKi was greater than 8.00. In test [1], this compound gave a pIC50 greater than 6.30.

At GCN2 kinase, `Fc1n[nH]cc1C1CCCN(c2ccnc(-c3cnc4cnc(C(F)(F)F)cn34)n2)C1` (single isomer, unassigned) [IV-491, 3-(4-(3-(3-Fluoro-1H-pyrazol-4-yl)piperidin-1-yl)pyrimidin-2-yl)-6-(trifluoromethyl)imidazo[1,2-a]pyrazine] showed a negative-log Ki (pKi) greater than 8.00. Besides, in test [1], the pIC50 was greater than 6.30.

At GCN2 kinase, `Fc1n[nH]cc1C1CCCN(c2ccnc(-c3cnc4cnc(C(F)(F)F)cn34)n2)C1` (single isomer, unassigned) [IV-492, 3-(4-(3-(3-Fluoro-1H-pyrazol-4-yl)piperidin-1-yl)pyrimidin-2-yl)-6-(trifluoromethyl)imidazo[1,2-a]pyrazine] gave a pKi greater than 8.00. Also, the pIC50 in test [1] is greater than 6.30.

Regarding `CC1C(C(N)=O)CCCN1c1ccnc(-c2cnc3cnc(C(F)(F)F)cn23)n1` (single isomer, unassigned) [IV-499, 2-Methyl-1-(2-(6-(trifluoromethyl)imidazo[1,2-a]pyrazin-3-yl)pyrimidin-4-yl)piperidine-3-carboxamide], on GCN2 kinase, the pKi was greater than 8.00. Besides, the pIC50 in test [1] is 5.30 to 6.30.

`CC1CC(C(N)=O)C(C)N(c2ccnc(-c3cnc4cnc(C(F)(F)F)cn34)n2)C1` (single isomer, unassigned) [IV-501, 2,5-Dimethyl-1-(2-(6-(trifluoromethyl)imidazo[1,2-a]pyrazin-3-yl)pyrimidin-4-yl)piperidine-3-carboxamide]: the pKi on GCN2 kinase is greater than 8.00. In test [1], this compound had a pIC50 of 5.30 to 6.30.

On to `CC1CN(c2ccnc(-c3cnc4cnc(C(F)(F)F)cn34)n2)C(C)C(c2cnc[nH]2)N1` (single isomer, unassigned) [IV-538, 3-(4-(3-(1H-Imidazol-5-yl)-2,5-dimethylpiperazin-1-yl)pyrimidin-2-yl)-6-(trifluoromethyl)imidazo[1,2-a]pyrazine], for which, at GCN2 kinase, the pKi is greater than 8.00. The same compound showed a pIC50 in test [1] of 5.30 to 6.30.

On GCN2 kinase, `FC(F)(F)c1cn2c(-c3nccc(N4CCC(c5cn[nH]c5)C4)n3)cnc2cn1` (single isomer, unassigned) [IV-540, 3-(4-(3-(1H-Pyrazol-4-yl)pyrrolidin-1-yl)pyrimidin-2-yl)-6-(trifluoromethyl)imidazo[1,2-a]pyrazine] showed a pKi greater than 8.00. In test [1], this compound gave a pIC50 of 5.30 to 6.30.

On GCN2 kinase, `FC(F)(F)c1cn2c(-c3nccc(N4CCCC(c5cn[nH]c5)C4)n3)cnc2cn1` (single isomer, unassigned) [IV-545, 3-(4-(3-(1H-Pyrazol-4-yl)piperidin-1-yl)pyrimidin-2-yl)-6-(trifluoromethyl)imidazo[1,2-a]pyrazine] gave a pKi greater than 8.00. In test [1], this compound had a pIC50 of 5.30 to 6.30.

In turn, `FC(F)(F)c1cn2c(-c3nccc(N4CCCC(c5cn[nH]c5)C4)n3)cnc2cn1` (single isomer, unassigned) [IV-546, 3-(4-(3-(1H-Pyrazol-4-yl)piperidin-1-yl)pyrimidin-2-yl)-6-(trifluoromethyl)imidazo[1,2-a]pyrazine] had a pKi at GCN2 kinase greater than 8.00. This compound also showed a pIC50 in test [1] greater than 6.30.

On to `Fc1n[nH]cc1C1CCN(c2ccnc(-c3cnc4cnc(C(F)(F)F)cn34)n2)C1` (single isomer, unassigned) [IV-562, 3-(4-(3-(3-Fluoro-1H-pyrazol-4-yl)pyrrolidin-1-yl)pyrimidin-2-yl)-6-(trifluoromethyl)imidazo[1,2-a]pyrazine], for which, at GCN2 kinase, the pKi is greater than 8.00. This compound also showed a pIC50 in test [1] greater than 6.30.

`Fc1n[nH]cc1C1CCN(c2ccnc(-c3cnc4cnc(C(F)(F)F)cn34)n2)C1` (single isomer, unassigned) [IV-563, 3-(4-(3-(3-Fluoro-1H-pyrazol-4-yl)pyrrolidin-1-yl)pyrimidin-2-yl)-6-(trifluoromethyl)imidazo[1,2-a]pyrazine] had a pKi on GCN2 kinase greater than 8.00. In test [1], the pIC50 was 5.30 to 6.30.
